Laboratory results published in patent publication US6417141B1, “Substituted aminouracils” (Bayer Aktiengesellschaft, priority 1995, dated 2002).

Key:
Type in all cases: in vivo
Conditions in all cases: greenhouse, 125 g/ha a.i., rated after three weeks vs untreated control
[1] = system: Galium; assay: Post-emergence test
Description: (§1) Solvent: 5 parts by weight of acetone
(§2) Emulsifier: 1 part by weight of alkylaryl polyglycol ether
(§3) To produce a suitable preparation of active compound, 1 part by weight of active compound is mixed with the stated amount of solvent, the stated amount of emulsifier is added and the concentrate is diluted with water to the desired concentration.
(§4) Test plants which have a height of 5-15 cm are sprayed with the preparation of the active compound in such a way as to apply the particular amounts of active compound desired per unit area.
(§5) After three weeks, the degree of damage to the plants is rated in % damage by comparison with the development of the untreated control.
(§6) 0%=no effect (like untreated control)

[2] = system: Alopecurus; assay: Post-emergence test
Description: as §1, §2, §3, §4, §5, §6

[3] = system: Amaranthus; assay: Post-emergence test
Description: as §1, §2, §3, §4, §5, §6

[4] = system: Sinapis; assay: Post-emergence test
Description: as §1, §2, §3, §4, §5, §6

[5] = system: Avena; assay: Post-emergence test
Description: as §1, §2, §3, §4, §5, §6

[6] = system: Cyperus; assay: Post-emergence test
Description: as §1, §2, §3, §4, §5, §6

[7] = system: Abutilon; assay: Post-emergence test
Description: as §1, §2, §3, §4, §5, §6

[8] = system: Setaria; assay: Post-emergence test
Description: as §1, §2, §3, §4, §5, §6

[9] = system: Xanthium; assay: Post-emergence test
Description: as §1, §2, §3, §4, §5, §6

[10] = system: Galium; assay: Pre-emergence test
Description: as §1, §2
(§7) To produce a suitable preparation of active compound, 1 part by weight of active compound is mixed with a stated amount of solvent, the stated amount of the emulsifier is added and the concentrate is diluted with water to the desired concentration.
(§8) Seeds of the test plants are sown in normal soil. After about 24 hours, the soil is watered with the preparation of the active compound. It is advantageous to keep the amount of water per unit area constant. The concentration of the active compound in the preparation is immaterial, only the amount of active compound applied per unit area matters.
as §5, §6

[11] = system: Alopecurus; assay: Pre-emergence test
Description: as §1, §2, §7, §8, §5, §6

[12] = system: Amaranthus; assay: Pre-emergence test
Description: as §1, §2, §7, §8, §5, §6

[13] = system: Sinapis; assay: Pre-emergence test
Description: as §1, §2, §7, §8, §5, §6

[14] = system: Avena; assay: Pre-emergence test
Description: as §1, §2, §7, §8, §5, §6

[15] = system: Cyperus; assay: Pre-emergence test
Description: as §1, §2, §7, §8, §5, §6

[16] = system: Abutilon; assay: Pre-emergence test
Description: as §1, §2, §7, §8, §5, §6

[17] = system: Setaria; assay: Pre-emergence test
Description: as §1, §2, §7, §8, §5, §6

[18] = system: Xanthium; assay: Pre-emergence test
Description: as §1, §2, §7, §8, §5, §6

COc1cc(-n2c(=O)cc(C(F)(F)F)n(N)c2=O)c(F)cc1C#N [Example 1, 1-(4-cyano-2-fluoro-5-methoxy-phenyl)-3,6-dihydro-2,6-dioxo-3-amino-4-trifluoromethyl-1(2H)-pyrimidine]
100%: degree of damage to the plants, Galium [1] | degree of damage to the plants, Alopecurus [2] | degree of damage to the plants, Amaranthus [3] | degree of damage to the plants, Sinapis [4] | degree of damage to the plants, Avena [5] | degree of damage to the plants, Cyperus [6] | degree of damage to the plants, Abutilon [7] | degree of damage to the plants, Setaria [8] | degree of damage to the plants, Xanthium [9] | degree of damage to the plants, Galium [10] | degree of damage to the plants, Alopecurus [11] | degree of damage to the plants, Amaranthus [12] | degree of damage to the plants, Sinapis [13] | degree of damage to the plants, Avena [14] | degree of damage to the plants, Cyperus [15] | degree of damage to the plants, Abutilon [16] | degree of damage to the plants, Setaria [17] | degree of damage to the plants, Xanthium [18]
